Key:
[1] = test system: U87; test: Alamar blue cell viability assay, U87 cells; assay type: cell-based; details: Homo sapiens, U-87 MG; 72 hours of treatment; mean±SEM, three independent experiments
Protocol: U87 and U251 cell lines were obtained from the European Collection of Cell Cultures (ECACC) through CellBank Australia. U87-EGFRvIII cell line was obtained from their lab of origin (Nishikawa et al., 1994, Proc Natl Acad Sci USA 91: 7727-7731) and tested for EGFR amplification and mutation by immunoblotting and flow cytometry. Cells were cultured in DMEM medium (Invitrogen by Life Technologies, Carlsbad, Calif., USA) supplemented with 10% FBS (Sigma-Aldrich) at 37° C. and 5% CO2. Primary gliomaspheres (RN1, classical; WK1, mesenchymal) were derived from glioblastoma specimens (Day et al., 2013, Cancers 5: 357-371; Day et al., 2013, Cancer Cell 23: 238-248), maintained in StemPro NSC serum-free media supplemented with EGF and FGF (all Life Technologies), and grown on matrigel-coated flasks (Pollard et al., 2009, Cell Stem Cell 4: 568-580).
Cell viability was determined using Alamar blue assay after 72 hours of treatment (Table 2). EC50 values were calculated using non-linear regression on Graph Pad Prism version 5. c Log P values calculated using ChemBioDraw Software. Results are mean±SEM from three independent experiments performed in triplicates.

[2] = target: T1, (Homo sapiens, UniProt P43403); test: Kinase profiling (ProQinase 33PanQinase Activity Assay), ZAP90; assay type: biochemical; details: read-out: residual activity, ZAP90
T1 sequence (P43403 1-619): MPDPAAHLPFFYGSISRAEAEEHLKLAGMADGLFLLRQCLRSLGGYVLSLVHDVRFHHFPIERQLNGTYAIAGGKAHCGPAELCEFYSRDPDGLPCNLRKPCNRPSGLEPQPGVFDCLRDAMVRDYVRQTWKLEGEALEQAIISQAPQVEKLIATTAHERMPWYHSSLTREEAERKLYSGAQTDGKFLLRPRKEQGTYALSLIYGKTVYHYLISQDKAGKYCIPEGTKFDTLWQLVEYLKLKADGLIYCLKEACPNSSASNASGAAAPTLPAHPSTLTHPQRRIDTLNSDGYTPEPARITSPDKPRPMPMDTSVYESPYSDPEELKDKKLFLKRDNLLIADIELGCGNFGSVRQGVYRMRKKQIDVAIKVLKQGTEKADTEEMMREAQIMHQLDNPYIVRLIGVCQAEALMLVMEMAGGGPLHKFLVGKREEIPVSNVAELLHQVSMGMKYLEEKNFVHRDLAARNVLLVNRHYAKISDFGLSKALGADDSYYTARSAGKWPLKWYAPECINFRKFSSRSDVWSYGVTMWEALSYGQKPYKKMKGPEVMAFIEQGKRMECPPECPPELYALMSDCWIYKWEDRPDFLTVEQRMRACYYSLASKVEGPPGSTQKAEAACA
Protocol: The kinase profiling of compound 1-08 at 10 and 50 μM was performed by ProQinase GmbH (Freiburg, Germany). A radiometric protein kinase assay (^33PanQinase® Activity Assay) and the non-radiometric ADP-Glo™ Assay (Promega, Madison, Wis., USA) were used for measuring kinase activity of 387 protein kinases and 13 lipid kinases, respectively. The results are shown in Table 3 (only the top 10 kinases are listed, and the selectivity score describes the portion of kinases inhibited more than 50% in relation to all tested kinases).

[3] = test system: U87; test: Annexin-FITC/7-AAD apoptosis assay, U87 cells; assay type: cell-based; details: 48 hours treatment
Protocol: FIGS. 4A-4D. […] U87 (4A-4B) and U87vIII (4C-4D) cells were treated with SC-38 for 48 hours and stained with Annexin-FITC/7-AAD. Apoptotic cells were visualized using the MUSE cell analyzer (Millipore).
FIGS. 6A-6D. […] U87 (A B) (6A-6B) and U87vIII (6C-6D) cells were treated with compound 1-08 for 48 hours and stained with Annexin-FITC/7-AAD. Apoptotic cells were visualized using the MUSE cell analyzer (Millipore). Results are means±SEM from 3 independent experiments. One-way ANOVA followed by Dunnet post-test was used to calculate statistical significance (***P<0.001).
(§1) U87 (FIGS. 4, A-B) and U87vIII (FIG. 4, C-D) cells were treated with SC-38 for 48 hours and stained with Annexin-FITC/7-AAD. Apoptotic cells were visualized using the MUSE cell analyzer (Millipore). Results are means±SEM from 3 independent experiments. One-way ANOVA followed by Dunnet post-test was used to calculate statistical significance (**P<0.01, ***P<0.001)
as §1, with “6,” for “4,”, “compound 1-08” for “SC-38”, “three” for “3”, “(***P<0.001).” for “(**P<0.01, ***P<0.001)”

O=C(CCCc1ccc(-c2cnc3ccccc3c2)cc1)Nc1ccc(O)cc1 [Compound 1-08, N-(4-hydroxyphenyl)-4-(4-(quinolin-3-yl)phenyl)butanamide]
EC50 [1]: 0.65 ± 0.3 µM
remaining activity at 10 µM ([2]; 10 μM compound): 60%
remaining activity at 50 µM ([2]; 50 μM compound): 14%
apoptosis, U87 [3]: induced apoptosis
